Some results are limits rather than exact numbers.

Assay [1] has as its system constitutive active colorectal cancer cell (CRC) Wnt pathway, HCT116 TOPFlash. Briefly: Cellular reporter assay, HCT116 Super TopFlash (constitutive active Wnt pathway), luciferase expression. In kind it is cell-based. The following applies: Homo sapiens, HCT-116, 36 h, HCT116 Super TopFlash reporter cells, 36 hours incubation, dilution series 50 μM to 15 nM. The gist of the method:
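HCT116 cells stably carrying Super TopFlash (β-catenin ΔS45, constitutive Wnt) run in parallel with FOP control line; compounds 50 μM to 15 nM (3.16-fold) in CAFTY buffer pH 7.4 with 2 mM Ca2+, 0.01% BSA, 36 h at 37 °C. Luciferase luminescence read as Wnt activity.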

Another assay relates to HCT116 FOPFlash. Kind of assay: Control reporter assay, HCT116 FOP control vector (non-functional TCF elements), luciferase expression. Particulars: Homo sapiens, HCT-116, 36 h, HCT116 FOP control reporter cells, 36 hours incubation, dilution series 50 μM to 15 nM. In kind it is cell-based. The gist of the method:
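Stable HCT116 cells carrying FOP vector (randomized non-functional TCF sites) plus pcDNA3, run in parallel with TOP line; compounds 50 μM to 15 nM (3.16-fold steps) added in CAFTY buffer pH 7.4 with 2 mM Ca2+, 0.01% BSA. Incubated 36 h at 37 °C, 5% CO2; luciferase luminescence read.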

With `CN1CCN(CC(=O)Nc2cc(C(=O)Nc3cnc(-c4ccc(N)nc4)cn3)ccc2OC(F)(F)F)CC1` [Example 54, N-[5-(6-aminopyridin-3-yl)pyrazin-2-yl]-3-{[(4-methylpiperazin-1-yl)acetyl]amino}-4-(trifluoromethoxy)benzamide], the IC50 in assay [1] is 0.0355 µM; in the assay on HCT116 FOPFlash it was at least 50 µM.

With `Nc1ccc(-c2nnc(NC(=O)c3ccc(OC(F)(F)F)c(NC(=O)CN4CCOCC4)c3)s2)cn1` [Example 55, N-[5-(6-aminopyridin-3-yl)-1,3,4-thiadiazol-2-yl]-3-[(morpholin-4-ylacetyl)amino]-4-(trifluoromethoxy)benzamide], the IC50 in assay [1] was 0.24 µM; in the assay on HCT116 FOPFlash, at least 50 µM.

Take `Cc1cncc(-c2nnc(NC(=O)c3ccc(OC(F)(F)F)c(NC(=O)CN4CCOCC4)c3)s2)c1` [Example 56, N-[5-(5-methylpyridin-3-yl)-1,3,4-thiadiazol-2-yl]-3-[(morpholin-4-ylacetyl)amino]-4-(trifluoromethoxy)benzamide]: the IC50 is 0.47 µM in assay [1] and at least 50 µM with HCT116 FOPFlash.

With `CN1CCN(CC(=O)Nc2cc(C(=O)Nc3nnc(-c4cncc(C(F)(F)F)c4)s3)ccc2OC(F)(F)F)CC1` [Example 57, 3-{[(4-methylpiperazin-1-yl)acetyl]amino}-4-(trifluoromethoxy)-N-{5-[5-(trifluoromethyl)pyridin-3-yl]-1,3,4-thiadiazol-2-yl}benzamide], the IC50 is 0.24 µM in assay [1] and at least 50 µM in the assay on HCT116 FOPFlash.

Take `O=C(CN1CCOCC1)Nc1cc(C(=O)Nc2nnc(-c3cncc(C(F)(F)F)c3)s2)ccc1OC(F)(F)F` [Example 58, 3-[(morpholin-4-ylacetyl)amino]-4-(trifluoromethoxy)-N-{5-[5-(trifluoromethyl)pyridin-3-yl]-1,3,4-thiadiazol-2-yl}benzamide]: the IC50 is 7.39 µM in assay [1] and 27.3 µM in the assay on HCT116 FOPFlash.

`CN1CCN(CC(=O)Nc2cc(C(=O)Nc3cnc(-c4cnc(N)cn4)cn3)ccc2OC(F)(F)F)CC1` [Example 59, N-(5′-amino-2,2′-bipyrazin-5-yl)-3-{[(4-methylpiperazin-1-yl)acetyl]amino}-4-(trifluoromethoxy)benzamide]: the IC50 is 4.1 µM in assay [1] and at least 50 µM in the assay with HCT116 FOPFlash.

As to `CN1CCN(CC(=O)Nc2cc(C(=O)Nc3nnc(-c4cnccn4)s3)ccc2OC2CC2)CC1` [Example 60, 4-(cyclopropyloxy)-3-{[(4-methylpiperazin-1-yl)acetyl]amino}-N-[5-(pyrazin-2-yl)-1,3,4-thiadiazol-2-yl]benzamide], the concentration for half-maximal inhibition (IC50) in assay [1] is 4.4 µM; with HCT116 FOPFlash, at least 50 µM.

Take `Cc1ccncc1-c1nnc(NC(=O)c2ccc(OCC(F)(F)F)c(NC(=O)CN3CCN(C)CC3)c2)s1` [Example 61, 3-{[(4-methylpiperazin-1-yl)acetyl]amino}-N-[5-(4-methylpyridin-3-yl)-1,3,4-thiadiazol-2-yl]-4-(2,2,2-trifluoroethoxy)benzamide]: the IC50 is 0.34 µM in assay [1] and at least 50 µM with HCT116 FOPFlash.

Regarding `Cc1ccnc(-c2nnc(NC(=O)c3ccc(OC(F)(F)F)c(NC(=O)CN4CCN(C)CC4)c3)s2)c1` [Example 62, 3-{[(4-methylpiperazin-1-yl)acetyl]amino}-N-[5-(4-methylpyridin-2-yl)-1,3,4-thiadiazol-2-yl]-4-(trifluoromethoxy)benzamide], the results for the IC50 (in assay [1]; with HCT116 FOPFlash) were 1.01 µM and 8.55 µM, respectively.

For `Cc1csc(-c2nnc(NC(=O)c3ccc(OC(F)(F)F)c(NC(=O)CN4CCN(C)CC4)c3)s2)n1` [Example 63, 3-{[(4-methylpiperazin-1-yl)acetyl]amino}-N-[5-(4-methyl-1,3-thiazol-2-yl)-1,3,4-thiadiazol-2-yl]-4-(trifluoromethoxy)benzamide], the IC50 in assay [1] was 1.08 µM; in the assay with HCT116 FOPFlash, 43.5 µM.

As for `CN1CCN(CC(=O)Nc2cc(C(=O)Nc3nnc(-c4cscn4)s3)ccc2OC(F)(F)F)CC1` [Example 64, 3-{[(4-methylpiperazin-1-yl)acetyl]amino}-N-[5-(1,3-thiazol-4-yl)-1,3,4-thiadiazol-2-yl]-4-(trifluoromethoxy)benzamide], the 50% inhibitory concentration (IC50) was found to be 1.11 µM in assay [1] and 46 µM in the assay on HCT116 FOPFlash.

Consider `CN1CCN(CC(=O)Nc2cc(C(=O)Nc3nnc(-c4cnc(N)s4)s3)ccc2OC(F)(F)F)CC1` [Example 66, N-[5-(2-amino-1,3-thiazol-5-yl)-1,3,4-thiadiazol-2-yl]-3-{[(4-methylpiperazin-1-yl)acetyl]amino}-4-(trifluoromethoxy)benzamide], for which the IC50 was 1.47 µM in assay [1] and at least 50 µM in the assay on HCT116 FOPFlash.

Consider `O=C(CN1CCOCC1)Nc1cc(C(=O)Nc2nnc(-c3cscn3)s2)ccc1OC(F)(F)F` [Example 67, 3-[(morpholin-4-ylacetyl)amino]-N-[5-(1,3-thiazol-4-yl)-1,3,4-thiadiazol-2-yl]-4-(trifluoromethoxy)benzamide], for which the IC50 was 1.65 µM in assay [1] and at least 50 µM in the assay on HCT116 FOPFlash.

On to `CN1CCN(CC(=O)Nc2cc(C(=O)Nc3nnc(-c4cncs4)s3)ccc2OC(F)(F)F)CC1` [Example 68, 3-{[(4-methylpiperazin-1-yl)acetyl]amino}-N-[5-(1,3-thiazol-5-yl)-1,3,4-thiadiazol-2-yl]-4-(trifluoromethoxy)benzamide], for which the IC50 is 1.86 µM in assay [1] and at least 50 µM in the assay with HCT116 FOPFlash.

As to `O=C(CN1CCOCC1)Nc1cc(C(=O)Nc2nnc(-c3cncnc3)s2)ccc1OC(F)(F)F` [Example 69, 3-[(morpholin-4-ylacetyl)amino]-N-[5-(pyrimidin-5-yl)-1,3,4-thiadiazol-2-yl]-4-(trifluoromethoxy)benzamide], the IC50 in assay [1] was 2.45 µM; in the assay on HCT116 FOPFlash it was at least 50 µM.

As for `CN1CCN(CC(=O)Nc2cc(C(=O)Nc3nnc(-c4cnccc4C(F)(F)F)s3)ccc2OC(F)(F)F)CC1` [Example 70, 3-{[(4-methylpiperazin-1-yl)acetyl]amino}-4-(trifluoromethoxy)-N-{5-[4-(trifluoromethyl)pyridin-3-yl)-1,3,4-thiadiazol-2-yl}benzamide], the results for the 50% inhibitory concentration (IC50) (in assay [1]; in the assay with HCT116 FOPFlash) were 5.15 µM and at least 50 µM, respectively.

For `Cc1ccncc1-c1nnc(NC(=O)c2ccc(OC(F)(F)F)c(NC(=O)CN3CCOCC3)c2)s1` [Example 71, N-[5-(4-methylpyridin-3-yl)-1,3,4-thiadiazol-2-yl]-3-[(morpholin-4-ylacetyl)amino]-4-(trifluoromethoxy)benzamide], the IC50 in assay [1] was 4.66 µM; in the assay with HCT116 FOPFlash, at least 50 µM.

On to `O=C(CN1CCOCC1)Nc1cc(C(=O)Nc2nnc(-c3cncnc3)s2)ccc1OC1CC1` [Example 72, 4-(cyclopropyloxy)-3-[(morpholin-4-ylacetyl)amino]-N-[5-(pyrimidin-5-yl)-1,3-4-thiadiazol-2-yl)benzamide], for which the IC50 in assay [1] was 1.3 µM; in the assay with HCT116 FOPFlash, at least 50 µM.

As to `COCCOc1ccc(C(=O)Nc2nnc(-c3cnccc3C)s2)cc1NC(=O)CN1CCN(C)CC1` [Example 73, 4-(2-methoxyethoxy)-3-{[(4-methylpiperazin-1-yl)acetyl]amino}-N-[5-(4-methylpyridin-3-yl)-1,3,4-thiadiazol-2-yl]benzamide], the IC50 in assay [1] is 1 µM; with HCT116 FOPFlash, at least 50 µM.

Regarding `COCCCOc1ccc(C(=O)Nc2nnc(-c3cnccc3C)s2)cc1NC(=O)CN1CCOCC1` [Example 74, 4-(3-methoxypropoxy)-N-[5-(4-methylpyridin-3-yl)-1,3,4-thiadiazol-2-yl)-3-[(morpholin-4-ylacetyl)amino]benzamide], the IC50 was 3.7 µM in assay [1] and at least 50 µM in the assay on HCT116 FOPFlash.

On to `O=C(CN1CCOCC1)Nc1cc(C(=O)Nc2ccc(-c3cncnc3)cn2)ccc1OC1CC1` [Example 75, 4-(cyclopropyloxy)-3-[(morpholin-4-ylacetyl)amino]-N-[5-(pyrimidin-5-yl)pyridin-2-yl]benzamide], for which the IC50 in assay [1] is 0.037 µM; in the assay on HCT116 FOPFlash it was at least 50 µM.

`O=C(CN1CCOCC1)Nc1cc(C(=O)Nc2cnc(-c3cccnc3)s2)ccc1OC1CC1` [Example 76, 4-(cyclopropyloxy)-3-[(morpholin-4-ylacetyl)amino]-N-[2-(pyridin-3-yl)-1,3-thiazol-5-yl]benzamide]: the IC50 is 0.155 µM in assay [1] and at least 50 µM in the assay with HCT116 FOPFlash.

Regarding `CN1CCN(CC(=O)Nc2cc(C(=O)Nc3nnc(-c4cccnc4)s3)c(F)cc2OC(F)(F)F)CC1` [Example 77, 2-fluoro-5-{[(4-methylpiperazin-1-yl)acetyl]amino}-N-[5-(pyridin-3-yl)-1,3,4-thiadiazol-2-yl]-4-(trifluoromethoxy)benzamide], the IC50 in assay [1] was 0.18 µM; with HCT116 FOPFlash, at least 50 µM.

As for `Cc1ccncc1-c1nnc(NC(=O)c2cc(NC(=O)CN3CCN(C)CC3)c(OC(F)(F)F)cc2F)s1` [Example 78, 2-fluoro-5-{[(4-methylpiperazin-1-yl)acetyl]amino}-N-[5-(4-methylpyridin-3-yl)-1,3,4-thiadiazol-2-yl]-4-(trifluoromethoxy)benzamide], the figures for the IC50 (in assay [1]; in the assay with HCT116 FOPFlash) were 0.24 µM and at least 50 µM, respectively.

With `Cc1ccncc1-c1nnc(NC(=O)c2ccc(OC3COC3)c(NC(=O)CN3CCOCC3)c2)s1` [Example 79, N-[5-(4-methylpyridin-3-yl)-1,3,4-thiadiazol-2-yl]-3-[(morpholin-4-ylacetyl)amino]-4-(oxetan-3-yloxy)benzamide], the IC50 in assay [1] was 0.24 µM; with HCT116 FOPFlash, at least 50 µM.

Consider `O=C(CN1CCOCC1)Nc1cc(C(=O)Nc2nnc(-c3ccccn3)s2)ccc1OC(F)(F)F` [Example 80, 3-[{morpholin-4-ylacetyl)amino]-N-[5-(pyridin-2-yl)-1,3,4-thiadiazol-2-yl]-4-(trifluoromethoxy)benzamide], for which the half-inhibitory concentration (IC50) was 27.5 µM in assay [1] and at least 50 µM in the assay with HCT116 FOPFlash.

The IC50 is the concentration needed to halve the response being measured. A lower IC50 goes with greater potency in that assay.

(Values after US20170107212A1, “NOVEL COMPOUNDS” (Bayer Pharma Aktiengesellschaft, priority 2014, published 2017).)
